Where two headings read alike, the source gives them in different places. Each block holds one molecule with its values, some of them ahead of it.
Assays:
[1] = molecular target: T1, OAT1 (Homo sapiens, UniProt Q4U2R8); experiment: OAT1 substrate determination in HEK293 cells; format: in vitro ADME; details: for Uptake ratio: OAT1 vs control cells; for Uptake (Average ± SD), OAT1: OAT1-expressing HEK293 cells; for recovery at 10 μM: human
T1 sequence (Q4U2R8 1-563): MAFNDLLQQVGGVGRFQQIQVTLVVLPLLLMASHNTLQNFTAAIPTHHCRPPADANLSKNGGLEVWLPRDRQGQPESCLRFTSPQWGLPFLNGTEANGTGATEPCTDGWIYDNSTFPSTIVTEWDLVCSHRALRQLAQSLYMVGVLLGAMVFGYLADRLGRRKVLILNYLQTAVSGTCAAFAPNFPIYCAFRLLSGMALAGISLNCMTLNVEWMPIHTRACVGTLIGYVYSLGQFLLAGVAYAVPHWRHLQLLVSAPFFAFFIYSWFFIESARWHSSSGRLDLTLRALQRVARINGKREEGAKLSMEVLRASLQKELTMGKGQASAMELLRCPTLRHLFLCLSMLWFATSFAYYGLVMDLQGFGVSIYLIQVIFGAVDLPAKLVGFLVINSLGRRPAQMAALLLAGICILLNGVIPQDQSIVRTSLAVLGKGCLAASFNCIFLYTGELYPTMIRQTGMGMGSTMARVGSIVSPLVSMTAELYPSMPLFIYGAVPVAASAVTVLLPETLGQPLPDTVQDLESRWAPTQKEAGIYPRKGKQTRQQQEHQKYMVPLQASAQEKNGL

[2] = molecular target: T2, OAT3 (Homo sapiens, UniProt Q8TCC7); experiment: OAT3 substrate determination in HEK293 cells; format: in vitro ADME; details: for Uptake ratio: OAT3 vs control cells; for Uptake (Average ± SD), OAT3: OAT3-expressing HEK293 cells; for recovery at 10 μM: human
T2 sequence (Q8TCC7 1-542): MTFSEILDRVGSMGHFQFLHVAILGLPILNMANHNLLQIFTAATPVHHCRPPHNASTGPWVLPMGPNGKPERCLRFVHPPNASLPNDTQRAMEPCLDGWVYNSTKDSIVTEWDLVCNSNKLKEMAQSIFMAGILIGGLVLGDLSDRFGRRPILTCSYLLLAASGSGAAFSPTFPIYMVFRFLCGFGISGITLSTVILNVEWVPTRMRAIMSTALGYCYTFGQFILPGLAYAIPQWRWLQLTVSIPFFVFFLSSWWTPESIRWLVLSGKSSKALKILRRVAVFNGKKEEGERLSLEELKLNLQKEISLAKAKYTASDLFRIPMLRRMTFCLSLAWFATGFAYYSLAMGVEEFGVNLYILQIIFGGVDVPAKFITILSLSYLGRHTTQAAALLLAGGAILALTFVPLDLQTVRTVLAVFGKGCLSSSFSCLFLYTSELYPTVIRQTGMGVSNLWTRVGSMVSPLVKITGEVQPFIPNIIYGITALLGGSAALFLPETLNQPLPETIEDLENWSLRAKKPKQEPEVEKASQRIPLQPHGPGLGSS

[3] = molecular target: T2, OAT3; experiment: OAT3 positive-control inhibition, [3H]-Estrone-3-sulfate probe substrate uptake in HEK293 cells; format: in vitro ADME; details: [3H]-Estrone-3-sulfate (50 nM) probe, inhibitor 100 μM
[4] = low plasma concentrations (1.0 to 2.0 mg/100 mL); cited from earlier work
[5] = dichlorphenamide 10 μM + probenecid 100 μM, 1 min
[6] = dichlorphenamide 10 μM + probenecid 100 μM, 3 min
[7] = dichlorphenamide 10 μM + probenecid 100 μM, 10 min
[8] = dichlorphenamide 10 μM + probenecid 100 μM, control HEK293 cells, 1 min
[9] = dichlorphenamide 10 μM + probenecid 100 μM, control HEK293 cells, 3 min
[10] = dichlorphenamide 10 μM + probenecid 100 μM, control HEK293 cells, 10 min
[11] = dichlorphenamide 10 μM, incubation 1 min
[12] = dichlorphenamide 10 μM, incubation 3 min
[13] = dichlorphenamide 10 μM, incubation 10 min

Substrate of OAT1 (conclusion from Tables 1 and 2) ([1]; HEK293 cells): is a substrate of OAT1 | Uptake ratio [1, 5]: 1.29 | Uptake ratio [1, 6]: 1.11 | Uptake ratio [1, 7]: 1.01 | Uptake ratio ([1]; dichlorphenamide 10 μM, 1 min): 2.41 | Uptake ratio ([1]; dichlorphenamide 10 μM, 3 min): 2.39 | Uptake ratio ([1]; dichlorphenamide 10 μM, 10 min): 2.23 | Uptake (Average ± SD), OAT1 [1, 5]: 54.4 ± 2.7 pmol/mg protein | Uptake (Average ± SD), OAT1 [1, 6]: 135 ± 6 pmol/mg protein | Uptake (Average ± SD), OAT1 [1, 7]: 286 ± 17 pmol/mg protein | Uptake (Average ± SD), Control [1, 8]: 42.2 ± 2.4 pmol/mg protein | Uptake (Average ± SD), Control [1, 9]: 121 ± 8 pmol/mg protein | Uptake (Average ± SD), Control [1, 10]: 284 ± 19 pmol/mg protein | Uptake (Average ± SD), OAT1 [1, 11]: 109 ± 2 pmol/mg protein | Uptake (Average ± SD), OAT1 [1, 12]: 294 ± 14 pmol/mg protein | Uptake (Average ± SD), OAT1 [1, 13]: 591 ± 11 pmol/mg protein | Uptake (Average ± SD), Control ([1]; dichlorphenamide 10 μM, control HEK293 cells (vector only), incubation 1 min): 45.4 ± 0.4 pmol/mg protein | Uptake (Average ± SD), Control ([1]; dichlorphenamide 10 μM, control HEK293 cells (vector only), incubation 3 min): 123 ± 6 pmol/mg protein | Uptake (Average ± SD), Control ([1]; dichlorphenamide 10 μM, control HEK293 cells (vector only), incubation 10 min): 265 ± 8 pmol/mg protein | recovery at 10 μM ([1]; HEK293 cells expressing OAT1, pH 7.4, read-out: Recovery, OAT1): 98.5% | recovery at 10 μM ([1]; control HEK293 cells (transfected with vector only), pH 7.4, read-out: Recovery, Control): 95.3% | Substrate of OAT3 (conclusion from Tables 3 and 4) ([2]; HEK293 cells): is a substrate of OAT3 | Uptake ratio [2, 5]: 0.987 | Uptake ratio [2, 6]: 1.00 | Uptake ratio [2, 7]: 1.24 | Uptake ratio ([2]; dichlorphenamide 10 μM, 1 min): 2.26 | Uptake ratio ([2]; dichlorphenamide 10 μM, 3 min): 2.64 | Uptake ratio ([2]; dichlorphenamide 10 μM, 10 min): 2.75 | Uptake (Average ± SD), OAT3 [2, 5]: 123 ± 7 pmol/mg protein | Uptake (Average ± SD), OAT3 [2, 6]: 126 ± 18 pmol/mg protein | Uptake (Average ± SD), OAT3 [2, 7]: 177 ± 16 pmol/mg protein | Uptake (Average ± SD), Control [2, 8]: 124 ± 13 pmol/mg protein | Uptake (Average ± SD), Control [2, 9]: 125 ± 5 pmol/mg protein | Uptake (Average ± SD), Control [2, 10]: 143 ± 41 pmol/mg protein | Uptake (Average ± SD), OAT3 [2, 11]: 333 ± 24 pmol/mg protein | Uptake (Average ± SD), OAT3 [2, 12]: 311 ± 29 pmol/mg protein | Uptake (Average ± SD), OAT3 [2, 13]: 463 ± 27 pmol/mg protein | Uptake (Average ± SD), Control ([2]; dichlorphenamide 10 μM, control HEK293 cells, incubation 1 min): 147 ± 47 pmol/mg protein | Uptake (Average ± SD), Control ([2]; dichlorphenamide 10 μM, control HEK293 cells, incubation 3 min): 118 ± 3 pmol/mg protein | Uptake (Average ± SD), Control ([2]; dichlorphenamide 10 μM, control HEK293 cells, incubation 10 min): 169 ± 9 pmol/mg protein | recovery at 10 μM ([2]; HEK293 cells expressing OAT3, pH 7.4, read-out: Recovery, OAT3): 77.9% | recovery at 10 μM ([2]; control HEK293 cells, pH 7.4, read-out: Recovery, Control): 68.8%
SMILES: NS(=O)(=O)c1cc(Cl)c(Cl)c(S(N)(=O)=O)c1 [Dichlorphenamide, 4,5-dichloro-1,3-benzenedisulfonamide]

Background corrected uptake rate [3]: 0.0184 pmol/mg/min | Uptake (Average ± SD), OAT3 ([3]; OAT3-expressing HEK293 cells): 0.104 ± 0.006 pmol/mg protein | Uptake (Average ± SD), Control ([3]; control HEK293 cells): 0.0670 ± 0.0124 pmol/mg protein | activity at 100 μM ([3]; human, HEK293 cells expressing OAT3 and control cells, pH 7.4, probe [3H]-Estrone-3-sulfate (50 nM), relative to solvent control, read-out: Percent of control): 3.2%
SMILES: CCCN(CCC)S(=O)(=O)c1ccc(C(=O)O)cc1 [Probenecid]

SMILES: Nc1ccc(C(=O)NCC(=O)O)cc1 [aminohippurate, p-aminohippuric acid]
Fraction cleared by the kidneys from the renal blood stream in a single circulation (average) [4]: 90%
